Reference: publication PMC9966845, “Targeting Siderophore-Mediated Iron Uptake in M. abscessus: A New Strategy to Limit the Virulence of Non-Tuberculous Mycobacteria” (Pharmaceutics, 2023)
Like-named read-outs stand apart in the source and are kept apart here.

Assays:
[1] = tested on: C=C(O[C@@H]1C=C(C(=O)O)C=C[C@H]1O)C(=O)O; assay: purified protein, by the assay type; conditions: other: substrate of Mab-SaS, 37 °C, pH 7.5
[2] = biological target: T1, Mab-SaS (Mycobacteroides abscessus, UniProt B1MAQ5); assay: Grating-Coupled Interferometry (GCI) binding analysis; design: species or system M. abscessus; conditions: 25 °C, 1:1 kinetic model
Protocol: The binding affinity and ligand efficiency of the furan-based library was evaluated by Grating-Coupled Interferometry (GCI). The analyses were performed by the Creoptix WAVE system (Malvern Panalytical, Malvern, UK). Borate buffer (100 mM sodium borate pH 9.0, 1 M NaCl) was used for chip conditioning. Experiments were carried out by reversibly capturing His-tagged Mab-SaS (50 μg/mL in running buffer, i.e., PBS, 0.05% Tween 20, 0.5% DMSO) on 4PCP-NTA WAVE chips, according to the manufacturer’s instructions, at a density of 3000 pg/mm^2.
Regeneration-free injections of a 1:2 dilution series in the 500–3 μM range for each compound of the furan-based library in running buffer were performed at 25 °C, using a flow rate of 100 μL/min.
A dimethyl sulfoxide (DMSO) calibration curve was used for bulk correction, and blank injections for double referencing. Data were analyzed and corrected using the Creoptix WAVE control software (correction applied: X and Y offset; DMSO calibration; double referencing). The processed data were fitted using the “1:1” kinetic model of the WAVE control software. All the experiments were performed in triplicate. Descriptive Statistical Analysis, as implemented in Microsoft Office Excel 10 (Microsoft Corporation, Redmond, WA, USA), was employed to calculate the mean of the obtained values of kon, koff, and KD as a measure of central tendency; standard deviations of the former values were computed as a measure of dispersion.

[3] = tested on: Mab; assay: MIC evaluation by resazurin assay in iron-limiting conditions; assay type: cell-based, M. abscessus; conditions: Mycobacteroides abscessus, chelated Sauton's medium, highest concentration tested 500 μM, read-out: antimycobacterial activity (MIC)
Protocol: Exponentially growing primary cultures were diluted 1:10 in iron-depleted Sauton’s medium enriched with 10% OACD. The secondary Mab culture growing in iron-limiting conditions was then diluted to OD600 0.005 using iron-depleted Sauton’s medium. Each well of the 96-well plate was filled with 100 μL of the diluted cell suspension. For each plate, the first four wells of the first row were filled with the cellular suspension and no drug was added (negative control). The following four wells were filled with the cellular suspension and treated with the vehicle volume. The last four wells of the first row were filled with the cellular suspension and treated with 1 mg/mL Streptomycin (positive control). Only the first well of the other rows was filled with 200 μL of cell suspension. In this well, the highest concentration of compound 1 (500 µM) was added and then two-fold serially diluted. After 24 h of incubation at 37 °C, 10 μL/well of 0.01% resazurin was added. The plate was re-incubated at 37 °C for 24 h and then read out. Pink wells indicated bacterial viability, whereas wells with an unchanged blue color indicated cidality. The MIC was counted as the lowest compound concentration causing cidality.

[4] = biological target: T1, Mab-SaS; assay: Mab-SaS inhibition, fluorimetric enzymatic assay; assay type: biochemical, M. abscessus; conditions: for remaining activity at 100 µM: 100 μM ligand concentration, read-out: %RA (residual enzymatic activity)
Protocol: The selected furan-based compounds were screened against Mab-SaS enzymatic activity at 100 µM (dissolved in a solution containing 10% DMSO). Assays were performed at subsaturating concentrations of chorismic acid (50 μM), as above. For the most promising compounds, the IC50 value was also determined.
To further verify the reliability of the inhibition results against Mab-SaS, we determined the IC50 of compound 1 in the presence of 0.1 mg/mL bovine serum albumin (BSA) or in the presence of 0.01% (v/v) Triton X-100 as a detergent. Moreover, to exclude an unspecific binding to cysteine residues, we also tested the IC50 with 100 μM of 1,4-dithio-DL-threitol (DTT).

[5] = tested on: M. bovis BCG; conditions: cited from earlier work
[6] = no additive, 50 μM chorismic acid, read-out: IC50

T1 sequence (B1MAQ5 entry or part of it): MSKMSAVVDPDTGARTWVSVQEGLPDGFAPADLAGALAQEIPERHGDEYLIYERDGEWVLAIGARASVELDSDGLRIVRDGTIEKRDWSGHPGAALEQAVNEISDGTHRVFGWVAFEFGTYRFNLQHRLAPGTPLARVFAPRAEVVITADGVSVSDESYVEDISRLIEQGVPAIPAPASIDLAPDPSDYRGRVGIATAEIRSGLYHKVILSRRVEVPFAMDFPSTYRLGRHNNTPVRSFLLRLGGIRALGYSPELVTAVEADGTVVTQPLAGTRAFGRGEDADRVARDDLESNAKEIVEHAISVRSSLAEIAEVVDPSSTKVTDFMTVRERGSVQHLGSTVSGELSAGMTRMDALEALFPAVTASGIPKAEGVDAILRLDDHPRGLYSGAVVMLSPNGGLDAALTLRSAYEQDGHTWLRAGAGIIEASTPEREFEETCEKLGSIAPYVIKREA

| Compound | Km [1] | Kd [2] | koff [2] | kon [2] | MIC [3] | IC50 ([4]; 100 μM DTT in the reaction mixture, read-out: IC50 in the presence of DTT) | inhibition at 100 µM ([4]; 100 μM compound) | remaining activity at 100 µM ([4]; 50 μM chorismic acid) | IC50 ([4]; 0.1 mg/mL bovine serum albumin (PAIN analysis), read-out: IC50 in the presence of BSA) | IC50 ([4]; 0.01% (v/v) Triton X-100 (PAIN analysis), read-out: IC50 in the presence of Triton X-100) | IC50 [4, 6] | antimycobacterial activity on M. bovis BCG [5] |
| --- | --- | --- | --- | --- | --- | --- | --- | --- | --- | --- | --- | --- |
| Mab-SaS (Mycobacteroides abscessus ATCC 19977) | 58 µM | – | – | – | – | – | – | – | – | – | – | – |
| O=C(O)c1ccc(-c2ccc(C(F)(F)F)cc2C(F)(F)F)o1 [Compound 1, 5-(2,4-bis(trifluoromethyl)phenyl)furan-2-carboxylic acid] | – | 6.11 ± 0.16 µM | 9.77e-05 s⁻¹ | 15.4 ± 5 M⁻¹ s⁻¹ | > 500 µM | 6.1 ± 1.42 µM | 98.8% | 1.2 ± 2.8% | 5.2 ± 0.68 µM | 6.5 ± 0.56 µM | 5.3 ± 1.5 µM | 500 µM |
| Nc1cc([N+](=O)[O-])ccc1-c1ccc(C(=O)O)o1 [Compound 2, 5-(2-amino-4-nitrophenyl)furan-2-carboxylic acid] | – | 12.7 ± 3.32 µM | 0.00303 s⁻¹ | 244 ± 6200 M⁻¹ s⁻¹ | – | – | – | 2.3 ± 0.7% | – | – | 23.6 ± 1.8 µM | – |
| O=C(O)c1ccc(-c2cc(C(F)(F)F)cc(C(F)(F)F)c2)o1 [Compound 3, 5-(3,5-bis(trifluoromethyl)phenyl)furan-2-carboxylic acid] | – | 67.5 ± 9.51 µM | 0.00675 ± 6.1e-07 s⁻¹ | 100 ± 500 M⁻¹ s⁻¹ | – | – | – | 15.6 ± 2.5% | – | – | 29.5 ± 1.6 µM | – |
